Assay results from patent publication US11547681B2, “N-acylethanolamide derivatives and uses thereof” (ELIEM THERAPEUTICS, INC., priority 2016, dated 2023).
One block for each molecule: values may come before it.

Assay: in vitro
Settings: for Concentration (μM) of analyte PEA, 0 min / Concentration (μM) of analyte PEA, 10 min / Concentration (μM) of analyte PEA, 20 min / Concentration (μM) of analyte PEA, 30 min / Concentration (μM) of analyte PEA, 60 min / % Remaining of Initial (n = 1), 0 min / % Remaining of Initial (n = 1), 10 min / % Remaining of Initial (n = 1), 20 min / % Remaining of Initial (n = 1), 30 min / % Remaining of Initial (n = 1), 60 min / Measured concentration of PEA (analyte) / % Remaining of Initial: 1 μM
Outline: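 Test article (1 µM final) was pre-equilibrated at 37 °C in S9 reaction mixture, then the cofactor cocktail was added to start the reaction. Samples taken at 0, 10, 20, 30 and 60 min were quenched in cold acidified acetonitrile. LC-MS/MS tracked prodrug and released PEA, and half-lives came from single-phase exponential decay fits.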

[1] = male, Sprague-Dawley, rat, 0 min
[2] = male, Sprague-Dawley, rat, 10 min
[3] = male, Sprague-Dawley, rat, 20 min
[4] = male, Sprague-Dawley, rat, 30 min
[5] = male, Sprague-Dawley, rat, 60 min
[6] = male, Sprague-Dawley, rat, s9, 0 h
[7] = male, Sprague-Dawley, rat, s9, 10 min
[8] = male, Sprague-Dawley, rat, s9, 20 min
[9] = male, Sprague-Dawley, rat, s9, 0.5 h
[10] = male, Sprague-Dawley, rat, s9, 1 h

Concentration (μM) of analyte PEA, 0 min (both, human, 0 min): 0.00032 µM | Concentration (μM) of analyte PEA, 10 min (both, human, 10 min): 0.0058 µM | Concentration (μM) of analyte PEA, 20 min (both, human, 20 min): 0.017 µM | Concentration (μM) of analyte PEA, 30 min (both, human, 30 min): 0.015 µM | Concentration (μM) of analyte PEA, 60 min (both, human, 60 min): 0.0096 µM | % Remaining of Initial (n = 1), 0 min (both, human, s9, 0 h): 100% | % Remaining of Initial (n = 1), 10 min (both, human, s9, 10 min): 104% | % Remaining of Initial (n = 1), 20 min (both, human, s9, 20 min): 89% | % Remaining of Initial (n = 1), 30 min (both, human, s9, 0.5 h): 95% | % Remaining of Initial (n = 1), 60 min (both, human, s9, 1 h): 66% | half-life at 1 μM (both, human, s9, Half-life (min)): > 60 min | Concentration (μM) of analyte PEA, 0 min (male, Beagle, dog, 0 min): 0.010 µM | Concentration (μM) of analyte PEA, 10 min (male, Beagle, dog, 10 min): 0.030 µM | Concentration (μM) of analyte PEA, 20 min (male, Beagle, dog, 20 min): 0.035 µM | Concentration (μM) of analyte PEA, 30 min (male, Beagle, dog, 30 min): 0.031 µM | Concentration (μM) of analyte PEA, 60 min (male, Beagle, dog, 60 min): 0.029 µM | % Remaining of Initial (n = 1), 0 min (male, Beagle, dog, s9, 0 h): 100% | % Remaining of Initial (n = 1), 10 min (male, Beagle, dog, s9, 10 min): 104% | % Remaining of Initial (n = 1), 20 min (male, Beagle, dog, s9, 20 min): 89% | % Remaining of Initial (n = 1), 30 min (male, Beagle, dog, s9, 0.5 h): 80% | % Remaining of Initial (n = 1), 60 min (male, Beagle, dog, s9, 1 h): 86% | half-life at 1 μM (male, Beagle, dog, s9, Half-life (min)): > 60 min | Concentration (μM) of analyte PEA, 0 min (male, CD-1, mouse, 0 min): 0.013 µM | Concentration (μM) of analyte PEA, 10 min (male, CD-1, mouse, 10 min): 0.031 µM | Concentration (μM) of analyte PEA, 20 min (male, CD-1, mouse, 20 min): 0.022 µM | Concentration (μM) of analyte PEA, 30 min (male, CD-1, mouse, 30 min): 0.023 µM | Concentration (μM) of analyte PEA, 60 min (male, CD-1, mouse, 60 min): 0.025 µM | % Remaining of Initial (n = 1), 0 min (male, CD-1, mouse, s9, 0 h): 100% | % Remaining of Initial (n = 1), 10 min (male, CD-1, mouse, s9, 10 min): 82% | % Remaining of Initial (n = 1), 20 min (male, CD-1, mouse, s9, 20 min): 61% | % Remaining of Initial (n = 1), 30 min (male, CD-1, mouse, s9, 0.5 h): 78% | % Remaining of Initial (n = 1), 60 min (male, CD-1, mouse, s9, 1 h): 61% | half-life at 1 μM (male, CD-1, mouse, s9, Half-life (min)): > 60 min | half-life at 1 μM (male, CD-1, mouse, s9, Half-life (min), calculated half-life in parentheses): 87 min | Concentration (μM) of analyte PEA, 0 min [1]: 0.015 µM | Concentration (μM) of analyte PEA, 10 min [2]: 0.045 µM | Concentration (μM) of analyte PEA, 20 min [3]: 0.033 µM | Concentration (μM) of analyte PEA, 30 min [4]: 0.017 µM | Concentration (μM) of analyte PEA, 60 min [5]: 0.013 µM | % Remaining of Initial (n = 1), 0 min [6]: 100% | % Remaining of Initial (n = 1), 10 min [7]: 66% | % Remaining of Initial (n = 1), 20 min [8]: 69% | % Remaining of Initial (n = 1), 30 min [9]: 71% | % Remaining of Initial (n = 1), 60 min [10]: 52% | half-life at 1 μM (male, Sprague-Dawley, rat, s9, Half-life (min)): > 60 min | half-life at 1 μM (male, Sprague-Dawley, rat, s9, Half-life (min), calculated half-life in parentheses): 72 min
Compound: CCCCCCCCCCCCCCCC(=O)NCCOC(=O)CCC(=O)OCC(COC(=O)CCCCCCC)OC(=O)CCCCCCC (centres unmarked) [Compound I-3, PEA-Succinate-Glycerol-Di-Caprylic]

Measured concentration of PEA (analyte) (both, human, 0 min): 0.19 µM | Measured concentration of PEA (analyte) (both, human, 10 min): 0.57 µM | Measured concentration of PEA (analyte) (both, human, 20 min): 0.47 µM | Measured concentration of PEA (analyte) (both, human, 30 min): 0.41 µM | Measured concentration of PEA (analyte) (both, human, 60 min): 0.28 µM | % Remaining of Initial (both, human, s9, 0 h): 100% | % Remaining of Initial (both, human, s9, 10 min): 1.4% | % Remaining of Initial (both, human, s9, 20 min): <1.0% | % Remaining of Initial (both, human, s9, 0.5 h): <1.0% | % Remaining of Initial (both, human, s9, 1 h): <1.0% | half-life at 1 μM (both, human, s9, Half-life): < 10 min | Measured concentration of PEA (analyte) (male, Beagle, dog, 0 min): 0.13 µM | Measured concentration of PEA (analyte) (male, Beagle, dog, 10 min): 0.33 µM | Measured concentration of PEA (analyte) (male, Beagle, dog, 20 min): 0.34 µM | Measured concentration of PEA (analyte) (male, Beagle, dog, 30 min): 0.33 µM | Measured concentration of PEA (analyte) (male, Beagle, dog, 60 min): 0.20 µM | % Remaining of Initial (male, Beagle, dog, s9, 0 h): 100% | % Remaining of Initial (male, Beagle, dog, s9, 10 min): 32% | % Remaining of Initial (male, Beagle, dog, s9, 20 min): 11% | % Remaining of Initial (male, Beagle, dog, s9, 0.5 h): 3.5% | % Remaining of Initial (male, Beagle, dog, s9, 1 h): <1.0% | half-life at 1 μM (male, Beagle, dog, s9, Half-life): < 10 min | Measured concentration of PEA (analyte) (male, CD-1, mouse, 0 min): 0.29 µM | Measured concentration of PEA (analyte) (male, CD-1, mouse, 10 min): 0.50 µM | Measured concentration of PEA (analyte) (male, CD-1, mouse, 20 min): 0.44 µM | Measured concentration of PEA (analyte) (male, CD-1, mouse, 30 min): 0.38 µM | Measured concentration of PEA (analyte) (male, CD-1, mouse, 60 min): 0.37 µM | % Remaining of Initial (male, CD-1, mouse, s9, 0 h): 100% | % Remaining of Initial (male, CD-1, mouse, s9, 10 min): 4.6% | % Remaining of Initial (male, CD-1, mouse, s9, 20 min): 1.0% | % Remaining of Initial (male, CD-1, mouse, s9, 0.5 h): <1.0% | % Remaining of Initial (male, CD-1, mouse, s9, 1 h): <1.0% | half-life at 1 μM (male, CD-1, mouse, s9, Half-life): < 10 min | half-life at 1 μM (male, CD-1, mouse, s9, Half-life, calculated value in parentheses): 2.3 min | Measured concentration of PEA (analyte) [1]: 0.069 µM | Measured concentration of PEA (analyte) [2]: 0.17 µM | Measured concentration of PEA (analyte) [3]: 0.092 µM | Measured concentration of PEA (analyte) [4]: 0.061 µM | Measured concentration of PEA (analyte) [5]: 0.013 µM | % Remaining of Initial [6]: 100% | % Remaining of Initial [7]: 17% | % Remaining of Initial [8]: 2.8% | % Remaining of Initial [9]: <1.0% | % Remaining of Initial [10]: <1.0% | half-life at 1 μM (male, Sprague-Dawley, rat, s9, Half-life): < 10 min | half-life at 1 μM (male, Sprague-Dawley, rat, s9, Half-life, calculated value in parentheses): 3.9 min
Compound: CCCCCCCCCCCCCCCC(=O)NCCOC(=O)CCC(=O)OC(CO)CO [Compound I-8]
